Results published in a melting point compilation (Tetko et al.; mined from patent text by program, amines drawn as free bases though some values may be those of a salt).

Compound	melting point [°C]
COc1ccc(CNc2ncnc3c2ncn3C2OC(CO)C(O)C2O)cc1 (stereo not given)	148
Cc1cccc(NCC(C)Br)c1C (stereo not given)	55 to 58
CCN1CCN(c2cc3c(cc2Cl)c(=O)c(C(=O)O)cn3CC)CC1	245 to 248
Cn1cc(C(=O)NCc2ccc(Cl)cc2)c(=O)c2cc(CN=[N+]=[N-])ccc21	219 to 220
c1ccc(COc2cccc3cc(C4=NCCS4)[nH]c23)cc1	129 to 130
Cc1oc2c(-n3c(=O)cc(C(F)(F)F)n(C)c3=O)ccc(Cl)c2c1NO	134 to 136
CCc1nc(NC(C)=O)nc(NC(C)c2cccs2)n1 (stereo not given)	153
N#CCc1cccc(C(=O)c2ccccc2)c1N	138 to 139
COc1cc(OC)c2c(=O)[nH]c(-c3ccc(OCCNC(C)C)c(-c4ccc(S(C)(=O)=O)cc4C)n3)nc2c1	202 to 203
Cc1cc(Cl)n2nc(S(=O)(=O)Nc3c(Cl)cccc3Cl)nc2n1	217 to 220
CON=C(C#N)c1ccc(Cl)c(CNC(=O)OC)c1	104 to 107
N#Cc1ccccc1OC1SCC(O)C(O)C1O (stereo not given)	130 to 132
CC(C)(C)c1cc(C(=O)Nc2ccc(CC(=O)O)cc2)cc(C(C)(C)C)c1O	253 to 254
Cc1cccc(NC2=NCCO2)c1C	112 to 114
CCCCC(=O)c1c(-c2ccc3c(Br)c(OCC(=O)OCC)ccc3c2)oc2ccc(Cl)cc12	88 to 91
Cc1cc(-c2ccc(C(F)(F)F)c(C)c2)cc(-c2cccc(-c3cccc(S(N)(=O)=O)c3)n2)n1	> 250
Fc1cccc(-c2ncc(-c3cnc(-c4ccccc4)nc3)[nH]2)c1	221
CCC(=O)OC1CCC2C3CCC4=CC(=O)CCC4(C=O)C3CCC12C (stereo not given)	119 to 121
O=C1c2ccccc2C(=O)N1Cc1noc(-c2ncn3c2[C@@H]2CCN2C(=O)c2cc(F)ccc2-3)n1	287 to 288
CC(Oc1ccc(Oc2ccc3cc(Cl)ccc3n2)cc1)C(=O)O (stereo not given)	130
Nc1ccccc1C1CCCN(C(=O)C(F)(F)F)C1 (stereo not given)	138
Cc1ccc2cccc(OCc3c(Cl)ccc(S(N)(=O)=O)c3Cl)c2n1	206 to 208
CSc1nn2c(N)cc(C)nc2c1S(=O)(=O)c1ccc2ccccc2c1	> 230
CCC(C)(C)c1ccc(OCCCNC(=O)c2cc(N)c3ccccc3c2O)c(C(C)(C)CC)c1	120 to 123
N#Cc1c(CNC(=O)c2ccc(OC(F)(F)F)cc2)nn(-c2ccc(Cl)cc2Cl)c1-c1ccc(Cl)cc1	180

Compound	melting point [°C]
O=c1cc[nH]c2nc(-c3ccncc3)ncc12	> 350
CCNC(=O)c1ccc(N2CCN(Cc3cc(C)c4c(c3)NC(=O)C(C)O4)CC2)c(Cl)c1 (stereo not given)	227 to 228
CC(C)(C)OC(=O)N1C[C@@H]2[C@H](F)CCC(c3ccccc3)(c3ccccc3)[C@@H]2C1	200
CC(Cc1nc(-c2ccccc2)nc2ccccc12)C(=O)O (stereo not given)	180
CC(C)(Oc1ccc(Cl)cc1Cl)C(=O)C(Cc1ccc(Cl)cc1)n1cncn1 (stereo not given)	104 to 108
CC(C)CC(=O)Nc1c(C(=O)c2cc(Cl)ccn2)[nH]c2cc(Cl)ccc12	183 to 184
O=C(O)c1cc(Cl)cc(Cl)c1OC1CCOC1=O (stereo not given)	117 to 120
N#CSCC(Cl)=C(Cl)CCl	60 to 63
O=C(OCc1ccccc1)[C@@H]1CCC(=O)N1C(=O)c1ccccc1	101
OC(c1ccc(Cl)cc1)(c1ccc(Cl)cc1)c1nccn1Cc1ccc(Cl)cc1	171 to 173
CN(Cc1cc(C(F)(F)F)cc(C(F)(F)F)c1)C(=O)c1c(-c2ccc(F)cc2)c2ccc(=O)n(C)c2c(=O)n1C	210 to 212
Cc1ccncc1NC(=O)OC(C)(C)C	91 to 93
CC(C(=O)N(C)C)n1cc(Cl)c(-c2ccc(Cl)cc2)n1 (stereo not given)	92 to 93.5
O=Cc1c[nH]c2c1ccc1c3ccc(Br)cc3[nH]c12	> 250
Cc1ccc(C(=O)NCc2cccnc2)c(Nc2ccc3cn[nH]c3c2)n1	170 to 172
COc1cccc(OC)c1C(=O)P(=S)(CC(C)C)C(=O)c1c(OC)cccc1OC	145 to 147
CC(C)n1nc(-c2c(-c3ccccc3)nn3ccc(OCC(=O)NCCN(C)C)cc23)ccc1=O	117 to 119
COc1ccc(Nc2ncc3ccc(=O)n(C(C)C)c3n2)cc1	170
C=CC1CC2=C(CC=C(OC)C2)C2CCC3(C)C(=CCC3O)C12 (stereo not given)	129 to 136
C=Cc1cc(C)cc(NC(C)=O)n1	140
CC1(C)Oc2ccc(C#N)cc2[C@@H](NC(=NC#N)Oc2ccccc2)[C@@H]1O (relative stereo)	186 to 188
ClCc1ccccc1-c1ccccc1-c1ccccc1CCl	189 to 190
O=C(Cc1ccc(O)cc1)Nc1c(-c2cc(Cl)ccc2O)c2cc(C(F)(F)F)ccc2[nH]c1=O	218 to 221
O=C(O)COc1ccc(-c2coc3cc(OCC(=O)O)ccc3c2=O)cc1	270 to 272
CN1CCN(C(=O)[C@H]2CC[C@H](c3[nH]nc4c3C(=O)c3c(NC(=O)NN5CCOCC5)cccc3-4)CC2)CC1	228 to 230

Compound	melting point [°C]
CC(=O)CCCCCCCc1ccc(O)c(O)c1	73 to 75
COC1(c2ccc(Sc3ccc4c(c3)CCC(=O)N4C)s2)CCOCC1	84 to 86
Cc1cc(C(=O)N2Cc3cccn3Cc3ccccc32)ccc1I	152 to 153
Cc1nnc(S)n1-c1ccccc1F	119 to 120
CC(=O)NC1Cc2cc(CCN3CCN(c4nsc5ccccc45)CC3)ccc2C1(C)C (stereo not given)	58 to 68
C[C@H](NC(=O)c1c(F)cccc1[N+](=O)[O-])C(=O)O	142 to 144
O=C(O)CC1(c2ccc(Cl)c(Cl)c2)CNC(=O)C1 (stereo not given)	191 to 195
CCOC(=O)c1ccc(NCCOc2ccccc2)cc1	126 to 129
CC(=O)c1ccc2c(NCc3ccc(NC(=O)c4ccc(F)cc4)cc3)nc(N(C)C)nc2c1	195
COC(=O)c1cc2cc(OC)c(OC)cc2nc1N	227 to 229
Cc1cc2c(s1)Oc1cccc(C)c1NC2=O	198 to 200
COCOc1ccc(CCCOc2nn(C)cc2CC(=O)O)c(Oc2ncc(C(F)(F)F)cc2Cl)c1	122 to 123
COc1ccc(N=C(N)N(C)C)c(N2CCOCC2)c1	135
Cc1cc2c(cc1F)N(C(=O)Nc1cccnc1)CC2	203 to 205
CCCc1c(OCCCCCOc2coc(CO)cc2=O)ccc(C(C)=O)c1O	94 to 95
NN=Cc1ccc(C(=O)NC2CCC3(CC2)CN(CC(=O)O)C(=O)O3)cc1 (stereo not given)	280 to 284
N#Cc1cnn2c(-c3ccccc3C(F)(F)F)ccnc12	196 to 197
Cc1c(-c2ccc(Cl)cc2F)sc2nc(N)[nH]c(=O)c12	320 to 340
O=C(O)CCC(=O)N[C@H]1C[C@H](C(=O)O)Nc2cc(Cl)cc(Cl)c21 (relative stereo)	221 to 223
N#Cc1ccc2c(c1)Sc1ccc([N+](=O)[O-])cc1C=C2	234 to 236
COc1ccc(CCCC(=O)Nc2ncc([N+](=O)[O-])s2)cc1	176 to 177
N#Cc1ccc(COCCn2cnc3c(N)nc4ccccc4c32)cc1	238 to 239
Cc1ccccc1CN1CCC(n2c(C)c(-c3ccc(Cl)cc3)[nH]c2=O)CC1	218 to 220
COc1ccc(C(=O)c2cccc(C(=O)O)c2)cc1	183 to 186
O=C(O)c1sc2cc(OCc3cccnc3)ccc2c1Sc1ccccc1	236 to 238

Compound	melting point [°C]
Cn1cc(-c2ccccc2)c(=O)c(-c2ccc(Cl)c(Cl)c2)c1	166
O=C(NCCO)c1cccc(-c2nc(=O)c3ccccc3s2)n1	214 to 215
O=C(NCCCCCCCCCCCNC(=O)c1ccc(OC(F)(F)F)cc1)c1ccc(OC(F)(F)F)cc1	142
NS(=O)(=O)c1ccc(NC(=O)NCCCCCCNC(=O)n2cc(F)c(=O)[nH]c2=O)cc1	181 to 184
CC(=O)Nc1cc(NC(C)=O)cc([N+](=O)[O-])c1	> 290
CCn1c(CO)nc2cccnc21	117 to 121
O=C1CCC(N2C(=O)c3cccc(CNC(=O)Nc4cccc(Cl)c4)c3C2=O)C(=O)N1 (stereo not given)	193 to 195
O=C(NC1CCc2ccc([N+](=O)[O-])cc2C1)c1ccccc1 (stereo not given)	194 to 198
COc1cc(Cc2cnc(N)nc2N)cc(-c2ccc(C=O)cc2)c1OC	99
COc1ccc(Cn2c3c(c(C#N)c2NC2=CC(=O)CCC2)CCCC3)cc1	143 to 145
CC(=O)CCS(=O)(=O)C(c1ccc(Cl)cc1)c1ccc(Cl)cc1	103 to 105
CC(=O)Nc1ccc(C(=O)N(CCN2CCC(C(=O)c3ccc(F)cc3)CC2)c2ccc(O)cc2)cc1	133 to 137
NCCc1ccc(C(N)=O)s1	134 to 136
CCOC(=O)C(CC)Oc1ccccc1C(C)=O (stereo not given)	43 to 45
CCCCc1oc2ccccc2c1Cc1cc(I)c(OCCN(CC)CC)c(I)c1	80 to 81
COc1ccc(S(=O)(=O)N2c3cc(F)ccc3-c3ccccc3C2C)cc1 (stereo not given)	138 to 139
Clc1ccc(Nc2nc3ccccc3c3[nH]c(C4CCC4)nc23)cc1Cl	131 to 134
Cc1cc2c(c(C)c1C)C(=O)C(C)(C)O2	77 to 78
CCc1c(Oc2ccc(C(F)(F)F)cc2[N+](=O)[O-])n[nH]c1C	92 to 93
CC[C@H](C)[C@H](NC(=O)Nc1cccc(C)c1)C(=O)N[C@H](CO)Cc1c[nH]c2ccccc12	185 to 186
O=[N+]([O-])c1cc(C(F)(F)F)ccc1NC1CCCCC1	80.1
O=C(O)c1ccc(Cn2nnc(-c3cccc(I)c3)n2)cc1	241 to 242
N#Cc1ccc(OCC(=O)O)cc1F	150 to 152
CCCc1c(OCCCCCC(=O)NCCCCc2cncnc2)ccc(C(C)=O)c1O	87 to 89
C=CC(=O)NCc1ccc(CBr)cc1	167
